# Assay results from publication PMC12973313 (Chemical Science, 2026).
# Values joined by “and” are separate entries in the source; they are usually repeats but may differ in a detail not shown here. Equal entries are not always repeated. Where two headings read alike, the source gives them in different places.
# Columns and labels:
# [1] = 1H NMR titration, host:guest association; details: 1:1 binding isotherm, DMSO-d6 0.5% H2O, 298 K, guest as TBA salt
# Text: Here H2PO4^- was used to model the phosphate present in the phospholipid headgroup, while Cl^- was incorporated into these studies as a common biologically relevant anion. […] Summary […] using Bindfit v0.5,1 conducted in DMSO-d6/0.5 % H2O at 298 K. Anionic guest species were supplied as the TBA salt. Data was fitted to both 1:1, 1:2 and 2:1 binding isotherm. […] 94
# [2] = 1H NMR dilution study, self-association constants (Bindfit v0.5); format: physicochemical; details: 298 K; for Kdim, CoEK model / Ke, CoEK model / Ke, EK model / ρ, CoEK model: DMSO-d6/0.5 % H2O; for Kdim / Kdim (M^-1): equal K/dimerization model, DMSO-d6 0.5% H2O
# Description: This enables the quantification of parameters such as SSA anion dimerization constant which we have shown to correlate with critical aggregation concentration (CAC) values obtained from aqueous solutions of that same SSA.[30]
# Figure S40 – Graph illustrating the 1H NMR down-field change in chemical shift of urea NH
# resonances with increasing concentration of 9 in DMSO-d6/0.5 % H2O (298 K).
# Self-association constant calculation: values were calculated from data gathered from both
# NH’s and fitted to the Cooperative Equal K (CoEK) and Equal K/ dimerization binding models.
# Equal K/Dimerization model:
# Table S8- The self-association constants (Ke and Kdim) calculated for 3, 5, 7 and 9 in DMSO-d6/
# 0.5 % H2O solution at 298 K. Constants were obtained for the EK and CoEK models by fitting
# 1H NMR self-association data to Bindfit v0.5.
# EK model (M-1) CoEK model (M-1)
# Compound Ke Error Kdim Error Ke Error Kdim Error ⍴ Error
# (± %) (± %) (± %) (± %) (± %)
# (1 picture or pasted object on this page, not shown here)
# S. aureus NCTC 13616 = experiment: MIC assay; format: cell-based, Staphylococcus aureus
# Description: (§1) Next generation SSAs 3, 5, 7, and 9 were specifically designed to increase the activity of SSAs against both drug susceptible and resistant S. aureus and ovarian cancer cells. […] These strains include: (i) USA300, a common clinically relevant, methicillin resistant strain;[47] […]
# (§2) Section S3: Biological methods […]
# (§3) Preparation of bacterial plates : Sterile TSB agar plates were streaked using the desired […]
# (§4) Preparation of inoculum: An initial culture was made up by inoculating TSB (5 mL) with 3 single colonies of the desired bacteria under sterile conditions and incubated at 37 °C overnight. The optical density at 600 nm (OD 600) was adjusted using sterile distilled H 2O (dH2O) to equal ~1 x 10^6 bacteria/mL.
# (§5) Preparation of 96 -well microplate : A solution of each compound in H2O/5 % EtOH was made […]
# (§6) The compound solution (200 […]
# (§7) µL) was added to and diluted 50:50 down the plate. The bacterial suspension (100 µL) was dispensed into each well under sterile conditions. […]
# S. aureus ATCC 9144 = experiment: MIC assay; format: cell-based, Staphylococcus aureus
# Description: as §1, §2, §3, §4, §5, §6, §7
# Haemolysis assay = format: cell-based; details: human, human red blood cells (erythrocytes), pH 7.4, 1.39 mM total molecular concentration, 37 °C
# Description: Preparation of 96-well plate: Protocol modified from Travis et al.4 Heparinised human red blood cells collected from a volunteer and washed three times in PBS (pH 7.4). Compounds were serial diluted using PBS buffer across a 96-well V bottom Greiner plate. Negative control (100 µL PBS), and positive control (100 µL 0.1 % (v/v) Triton-X-100) were added to the plate.
# 100 µL of 10 % (v/v) of blood suspension added to all wells. Plates were incubated for 60 minutes at 37 °C. After incubation, plates were centrifuged for 15 minutes at 4680 rpm. The resultant supernatant was then transferred to a 96-well flat bottom plate and absorbance read at 540 nm (Fluostar Omega). Percent haemolysis was calculated using the formula as
# Equation S2 - Percentage haemolysis calculation.
# Haemolysis (%) = 𝐴𝑠𝑎𝑚𝑝𝑙𝑒 − 𝐴𝑛𝑒𝑔𝑎𝑡𝑖𝑣𝑒 𝑋 100
# [3] = tested on: Galleria mellonella larvae; experiment: G. mellonella toxicity assay; format: in vivo; details: out of 10, 10 µL of 5 mM in H2O/EtOH 19:1, 37 °C
# Description: Finally, we gauged the toxicity of SSAs 1, 3, 5, 7, and 9 as either homogenous solutions or heterogenous (1 : 1) enantiomeric mixtures towards multicellular organisms which have an intrinsic immune system.[66] Here, Galleria mellonella larvae were injected with 10 µL of SSA (5 mM) in a distilled H2O/EtOH 19 : 1 solution and then incubated at 37 °C for a maximum of five days and the number of surviving larvae recorded each day. […]. […]
# G. mellonella treatment assay: G. mellonella larvae were purchased from Livefood UK Ltd.
# (Rooks Bridge, UK) and maintained on wood chips in the dark at 15 °C until use. Galleria
# larvae were injected with 10 µL of compound in H2O/5 % EtOH, incubated at 37 °C for 5 days
# and the deaths counted. Groups of 10 Galleria were injected per compound. […]
# E. Faecalis NCTC 775 = experiment: MIC assay; format: cell-based, Enterococcus faecalis; details: for MIC: Enterococcus faecalis, NCTC775, lowest concentration with no visible growth
# Description: as §2
# Preparation of bacterial plates : Sterile TSB agar plates were streaked using the desired bacteria [Staphylococcus aureus (9144, 13616, USA 300 and 1199B ), Enterococcus faecalis (NCTC 775 and 12201 ) and Enterococcus faecium (NCTC 12204)] and incubated at 37 °C […]
# as §4, §5
# . The compound solution (200
# […]. The bacterial suspension (100 µL) was dispensed into each well under sterile conditions. The plates were sealed using parafilm and incubated at 37 °C for 20 hours, after which the OD 600 was measured.
# [4] = Quantitative 1H NMR, DMSO-d6 1% DCM (self-association); format: physicochemical; details: 112 mM, 298 K, proportion NMR silent
# Text: Initially, quantitative (Q) ^1H NMR spectroscopy experiments were undertaken in DMSO-d6 1% DCM, using the DCM as an internal standard to identify the presence of either low or high order SSA self-associated aggregates. Here, low-order SSA self-associated aggregates are defined as those directly observable using traditional solution state ^1H NMR spectroscopy such as the formation of hydrogen bonded anionic dimers. To determine the presence of low or high-order SSA aggregates, signals corresponding to the anionic or cationic component of the SSA are integrated against those of the internal DCM standard.
# S. aureus 1199B = experiment: microbe, parasite or virus in culture; format: cell-based, Staphylococcus aureus; details: for MIC: Staphylococcus aureus, 1199B; for MIC (mM) S. aureus 1199B: lowest concentration with no visible growth; for MIC 1199B: total molecular concentration
# Description: as §1, §2, §3, §4, §5, §6, §7
# [5] = design: method as in PMID 29633393; details: H2O 5% EtOH, cited from earlier work
# [6] = 1H NMR DOSY, DMSO-d6 0.5% H2O, 112 mM, 298 K; cited from earlier work
# [7] = Kinetic solubility in PBS pH 7.4; format: physicochemical; details: upper limit 300 µM
# [8] = Staphylococcus aureus, NCTC13616, 15 h, total molecular concentration, after 900 min, read-out: MIC NCTC 13616
# [9] = Staphylococcus aureus, NCTC13616, lowest concentration with no visible growth, read-out: MIC (mM) S. aureus 13616
# [10] = Staphylococcus aureus, ATCC9144, 15 h, total molecular concentration, after 900 min, read-out: MIC ATCC 9144
# [11] = Staphylococcus aureus, ATCC9144, lowest concentration with no visible growth, read-out: MIC (mM) S. aureus 9144
# [12] = 15 h, read-out: MIC 1199B, total molecular concentration, after 900 min
# [13] = read-out: MIC (mM) S. aureus 1199B, lowest concentration with no visible growth
# [14] = lowest concentration with no visible growth, listed as 5
Compound,"Ka / Kass (M-1), guest H2PO4- [1]","Kdim, CoEK model [2] [M⁻¹]","Ke, CoEK model [2] [M⁻¹]","Ke, EK model [2] [M⁻¹]","ρ, CoEK model [2]",MIC (S. aureus NCTC 13616; [8]) [mM],MIC (S. aureus NCTC 13616; [9]) [mM],MIC (S. aureus ATCC 9144; [10]) [mM],MIC (S. aureus ATCC 9144; [11]) [mM],Galleria moth larvae survived Day 1 [3],Galleria moth larvae survived Day 2 [3],Galleria moth larvae survived Day 3 [3],Galleria moth larvae survived Day 4 [3],Galleria moth larvae survived Day 5 [3],MIC (E. Faecalis NCTC 775) [mM],Q NMR (%) SSA anion [4] [%],Q NMR (%) SSA cation [4] [%],MIC (S. aureus 1199B; [12]) [mM],MIC (S. aureus 1199B; [13]) [mM],"Ka / Kass (M-1), guest Cl- [1]",also measured
O=C(Nc1ccc(C(F)(F)F)cc1)N[C@@H](Cc1ccccc1)C(=O)O [SSA 7],30.27 M⁻¹ and 30 M⁻¹,10.58,21.17,55.52,2.86,0.087,0.087,0.087,0.087,10,4,4,4,4,> 2.78,0,0,0.174,0.174,,"Kdim [2]: 27.76 M⁻¹; Kdim (M^-1) [2]: 28 (±2.1%) M^−1; hemolysis at 60 min, 1.39 mM (Haemolysis assay): 0.47%"
O=C(O)CNC(=O)Nc1ccc(C(F)(F)F)cc1 [SSA 1],12.59 M⁻¹,,,,,> 2.78,> 2.78,1.39,1.39,10,9,8,6,6,> 2.78,,,> 2.78,> 2.78,4.33 M⁻¹,"CAC (mM) ([5]; approx. 291 K): 11.2 (ref. [30]) mM; Surface tension (mN m^-1) [5]: 39.33 (ref. [30]) mN m^−1; hemolysis at 60 min, 1.39 mM (Haemolysis assay): 0.29%; dH (nm) [6]: 1.3 (ref. [30]) nm"
O=C(Nc1ccc(C(F)(F)F)cc1)N[C@H](Cc1ccccc1)C(=O)O [SSA 9],,8.92,17.84,45.90,2.62,0.087,0.087,0.174,0.174,9,9,9,7,5,2.78,0,0,0.174,0.174,No evidence of host: guest complex formation detected,"solubility at 2 h ([7]; phosphate buffered saline, 25 °C, pH 7.4, aqueous buffer, kinetic from dmso stock): 271 µM; Solubility in PBS pH 7.4 (μM) ([7]; 25°C, 2 hours): 271 μM; Kdim [2]: 22.95 M⁻¹; Kdim (M^-1) [2]: 23 (±2.5%) M^−1"
CC(C)CC(NC(=O)Nc1ccc(C(F)(F)F)cc1)C(=O)O (centres unmarked) [SSA 5],,,,,,,,,,,9,,,,,,,,,No evidence of host: guest complex formation detected,"Kdim, CoEK model ([2]; listed as 5): 175.90 M⁻¹; Ke, CoEK model ([2]; listed as 5): 351.80 M⁻¹; Ke, EK model ([2]; listed as 5): 180.55 M⁻¹; ρ, CoEK model ([2]; listed as 5): 3.41; Kdim ([2]; listed as 5): 90.27 M⁻¹; Kdim (M^-1) ([2]; listed as 5): 90 (±3.2%) M^−1; MIC (mM) S. aureus 13616 (S. aureus NCTC 13616; lowest concentration with no visible growth): 0.087 mM; MIC (S. aureus NCTC 13616; total molecular concentration, after 900 min, read-out: MIC NCTC 13616): 0.087 mM; MIC (mM) S. aureus 9144 (S. aureus ATCC 9144; [14]): 0.174 mM; MIC (S. aureus ATCC 9144; total molecular concentration, after 900 min, listed as 5, read-out: MIC ATCC 9144): 0.174 mM; Galleria moth larvae survived Day 1 ([3]; listed as 5): 10; Galleria moth larvae survived Day 3 ([3]; listed as 5): 8; Galleria moth larvae survived Day 4 ([3]; listed as 5): 8; Galleria moth larvae survived Day 5 ([3]; listed as 5): 8; MIC (mM) E. Faecalis NCTC 775 (E. Faecalis NCTC 775; [14]): 2.780 mM; MIC (mM) S. aureus 1199B (S. aureus 1199B; listed as 5): 2.780 mM; MIC 1199B (S. aureus 1199B; after 900 min, listed as 5): 2780 µM"
CC(C)CC(NC(=O)Nc1ccc(C(F)(F)F)cc1)C(=O)O (centres unmarked) [SSA 3],No evidence of host: guest complex formation detected,,,,,0.087,0.087,0.087,0.087,,9,,,,> 2.78,0,0,,,No evidence of host: guest complex formation detected,"Kdim, CoEK model ([2]; listed as 3): 280.45 M⁻¹; Ke, CoEK model ([2]; listed as 3): 560.90 M⁻¹; Ke, EK model ([2]; listed as 3): 242.72 M⁻¹; ρ, CoEK model ([2]; listed as 3): 2.29; Kdim ([2]; listed as 3): 121.36 M⁻¹; Kdim (M^-1) ([2]; listed as 3): 121 (±1.9%) M^−1; Galleria moth larvae survived Day 1 ([3]; listed as 3): 9; Galleria moth larvae survived Day 3 ([3]; listed as 3): 9; Galleria moth larvae survived Day 4 ([3]; listed as 3): 6; Galleria moth larvae survived Day 5 ([3]; listed as 3): 5; MIC (mM) S. aureus 1199B (S. aureus 1199B; listed as 3): 0.087 mM; MIC 1199B (S. aureus 1199B; after 900 min, listed as 3): 87 µM"
